This is an account of results in paper PMC9025269, “Synthesis and Anti-Hepatitis B Activities of 3′-Fluoro-2′-Substituted Apionucleosides” (Molecules, 2022).

Type in all cases: biochemical
One assay concerns the target T1, HBV polymerase (Hepatitis B virus genotype D subtype ayw, UniProt P03156).
T1 construct: Recombinant HBV polymerase (Hepatitis B virus genotype D subtype ayw, full length); made in house; host or cells: Sf9 insect cells (baculovirus)
As to the kind of experiment: HBV polymerase RdDp activity assay. Conditions: read-out: HBV pol IC50. An excerpt: (§1) HIV-1 reverse transcriptase (HIV-1 RT) was purchased from Abcam (cat#ab63979). Recombinant HBV polymerase (Hepatitis B virus genotype D subtype ayw, full length) was cloned using the baculovirus system, expressed in sf9 cells, and purified with similar strategy and methods described by Lanford et al.. A DNA primer (5′-[…]-3′) was synthesized by IDTDNA and a 358-nt RNA template was synthesized in-house using Megascript T7 transcription kit (ThermoFisher, cat#AM1334). dNTPs were purchased from Thermo Fisher and ^3H-dTTP from Perkin Elmer. Filter plates were purchased from Millipore (cat#MABN0V050) and microscint-20 was purchased from Perkin Elmer (cat#6013621).
The RdDp activity of HBV polymerase was measured similarly as described for the HIV-1 RT. To test compound inhibition effect, the reactions were performed at 30 °C for 120 min in a reaction mixture containing reaction buffer (50 mM Tris-Cl, pH 7.5, 100 mM KCl, 12.5 mM MgCl2, 4 mM DTT), 15 µg/mL polymerase, 0.5 µM DNA primer, 0.05 µM RNA template, 10% DMSO, 0.046 µM dATP, 0.057 µM dGTP, 0.017 µM dCTP, 0.32 µM ^3H-dTTP, and compounds at various concentrations.
All data were analyzed with GraphPad Prism. […]

Assay [1] concerns the target T2, HIV-1 reverse transcriptase (HIV-1 RT) (Human immunodeficiency virus type 1 group M subtype B, UniProt P03366).
T2 construct: HIV-1 reverse transcriptase (HIV-1 RT) was purchased from Abcam (cat#ab63979); purchased Abcam ab63979
Put plainly: HIV-1 reverse transcriptase RdDp activity assay.
From the text: as §1
The RNA-dependent DNA polymerization (RdDp) activity of HIV-1 RT was measured by the incorporation of radioactively labeled nucleotides by HIV-1 RT into acid-insoluble DNA products from the DNA primer primed RNA template. To test compound inhibition, the reactions were performed at 30 °C for 40 min in a reaction mixture containing reaction buffer (50 mM Tris-Cl, pH 7.5, 100 mM KCl, 12.5 mM MgCl2, 4 mM DTT), 1 nM HIV-1 RT, 0.1 µM DNA primer, 0.02 µM RNA template, 10% DMSO, 0.1 µM dATP, 1 µM dGTP, 0.1 µM dCTP, 0.32 µM ^3H-dTTP, and compounds at various concentrations. The 50 µL reactions were performed in 96-well plates. The reactions were quenched with a 60 µL cold mixture of 20% (w/v) TCA and 0.5 mM ATP and incubated at 4 °C for 1 h. The reactions were loaded onto 96-well filter plates. The filters on plates were washed three times with 10% TCA and once with 70% ethanol on a Millipore plate wash station with vacuum applied. The filters on the plate were air-dried and 40 μL Microscint-20 was added to each well. The acid-precipitated tritiated DNA products retained on the filters were detected by a Trilux MicroBeta scintillation reader (Perkin Elmer).
All data were analyzed with GraphPad Prism. The compound concentration at which the enzyme-catalyzed rate was reduced by 50% (IC50) was calculated by fitting the data to the equation Y = % Min + (% Max − % Min) / (1 + 10^((logIC50-X)*h)), where Y corresponds to the percent inhibition to the enzyme activity, % Min is the residual inhibition activity without compound, % Max is the maximum inhibition of enzyme activity at saturating compound concentration, and X corresponds to the log of compound concentrations, and h is the hillslope.

For the next assay, the target named is T3, human DNA polymerase β (Homo sapiens, UniProt P06746).
T3 construct: purchased CHIMERx 1077-1
As to the kind of experiment: Human DNA polymerase β DdDp assay. The protocol: The DNA-dependent DNA polymerization (DdDp) activity of human DNA polymerases α, β, and γ was measured as described previously. Briefly, the assays were run with 5 U/mL recombinant DNA polymerase α (CHIMERx, cat#1075-1), 0.5 U/mL recombinant DNA polymerase β (CHIMERx, cat#1077-1), or 0.1 μg/mL recombinant DNA polymerase γ (Abcam, cat#196066), 62 μg/mL activated calf thymus DNA, 50 mM Tris-HCl (pH 8.0), 60 mM KCl, 5 mM MgCl2, 4 mM dithiothreitol (DTT), 0.1 mg/mL BSA, 2 μM dCTP, 2 μM dATP, 2 μM dGTP, 0.05 μCi/μL ^3H-dTTP (Perkin Elmer) and compounds at various concentrations at 30 °C for 2 h. The 50 μL reactions were processed following the same filter plate method as described above for HIV-1 RT. Acid-precipitated tritiated DNA products retained on the filters were detected by a Trilux MicroBeta scintillation reader (Perkin Elmer). All data were analyzed as described above for HIV-1 RT.

T1 sequence (P03156 whole entry): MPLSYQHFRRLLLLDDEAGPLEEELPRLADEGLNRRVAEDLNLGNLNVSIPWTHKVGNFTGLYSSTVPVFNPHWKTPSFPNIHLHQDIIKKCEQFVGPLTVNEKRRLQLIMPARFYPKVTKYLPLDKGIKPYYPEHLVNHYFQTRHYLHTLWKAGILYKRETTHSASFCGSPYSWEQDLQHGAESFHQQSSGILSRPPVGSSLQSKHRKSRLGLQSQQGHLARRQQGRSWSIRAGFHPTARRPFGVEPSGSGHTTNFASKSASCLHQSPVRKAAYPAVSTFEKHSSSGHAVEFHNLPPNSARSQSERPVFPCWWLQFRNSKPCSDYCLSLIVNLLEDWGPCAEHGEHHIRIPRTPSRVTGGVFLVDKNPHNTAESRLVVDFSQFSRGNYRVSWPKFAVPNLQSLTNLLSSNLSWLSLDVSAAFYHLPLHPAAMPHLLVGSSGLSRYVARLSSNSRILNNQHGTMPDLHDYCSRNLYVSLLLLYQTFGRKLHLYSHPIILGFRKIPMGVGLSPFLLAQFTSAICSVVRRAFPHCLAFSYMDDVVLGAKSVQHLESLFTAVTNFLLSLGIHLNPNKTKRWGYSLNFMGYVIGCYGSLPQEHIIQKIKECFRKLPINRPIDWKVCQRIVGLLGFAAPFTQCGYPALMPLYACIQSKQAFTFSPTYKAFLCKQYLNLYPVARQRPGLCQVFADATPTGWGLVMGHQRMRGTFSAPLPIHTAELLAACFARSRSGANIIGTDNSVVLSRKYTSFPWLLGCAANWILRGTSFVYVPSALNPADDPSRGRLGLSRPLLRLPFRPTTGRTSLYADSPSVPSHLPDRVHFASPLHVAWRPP

As usually defined, the IC50 is the concentration at which inhibition is half-maximal. `Nc1ncnc2c1ncn2[C@@H]1OC[C@](F)(COP(=O)(O)OP(=O)(O)OP(=O)(O)O)[C@H]1CO` [Compound 38, ((3S,4S,5R)-5-(6-Amino-9H-purin-9-yl)-3-fluoro-4-(hydroxymethyl)tetrahydrofuran-3-yl)methyl triphosphate]: the IC50 at HBV polymerase was 120 nM; in assay [1], 320 nM; against human DNA polymerase β, more than 100 µM. Also, the “inhibition of HIV-1 RT” value in assay [1] was “potent inhibitor of HIV-1 RT”.
